Reference: patent US7314861B2, “Melanin-concentrating hormone analogs” (priority 2001, dated 2008)
pEC50, pIC50: −log10 of the molar value. Where a SMILES comes first, the peptide text is derived from it. Bridges are numbered along the chain shown (N, C = ends). [ ]: non-standard residue; d: D form. Arg(NO2) = N=C(NCCC[C@H](N)C(=O)O)N[N+](=O)[O-]

Experiments:
[1] = molecular target: T1, human MCH-1R (Homo sapiens, UniProt Q99705); assay: Aequorin bioluminescence functional assay, MCH-1R; conditions: for MCH-1R Activation %: % Activation at 10 μM, aequorin functional assay
Procedure: (§1) The aequorin bioluminescence assay can be used to measure the activity of G protein-coupled receptors that couple through the Gα protein subunit family consisting of Gq and G11. Such coupling leads to phospholipase C activation, intracellular calcium mobilization and protein kinase C activation.
(§2) Following approximately 40 hours of expression the apo-aequorin in the cells was charged for 4 hours with coelenterazine (10 μM) under reducing conditions (300 μM reduced glutathione) in ECB buffer (140 mM NaCl, 20 mM KCl, 20 mM HEPES-NaOH [pH=7.4], 5 mM glucose, 1 mM MgCl2, 1 mM CaCl2, 0.1 mg/ml bovine serum albumin).
(§3) The cells were harvested, washed once in ECB medium and resuspended to 500,000 cells/ml. 100 μl of cell suspension (corresponding to 5×10^4 cells) was then injected into the test plate containing MCH or MCH analogs, and the integrated light emission was recorded over 30 seconds, in 0.5 second units. 20 μL of lysis buffer (0.1% final Triton X-100 concentration) was then injected and the integrated light emission recorded over 10 seconds, in 0.5 second units. The “fractional response” values for each well were calculated by taking the ratio of the integrated response to the initial challenge to the total integrated luminescence including the Triton X-100 lysis response.

[2] = molecular target: human MCH-R2 (Homo sapiens, UniProt Q969V1); assay: Aequorin bioluminescence functional assay, MCH-2R; conditions: for EC50: MCH-2R EC50 (nM); for EC50 / MCH-2R Activation %: aequorin functional assay; for MCH-2R Activation %: % Activation at 10 μM; for selective activity at MCH-2R over MCH-1R: greater binding and/or activation at MCH-2R than at MCH-1R
Procedure: as §1, §2, §3

[3] = molecular target: T1, human MCH-1R; assay: Radiolabeled MCH-R binding assay (SPA based), MCH-1R
Procedure: (§4) Cell membranes were prepared on ice. Each T-75 flask was rinsed twice with 10 ml of Enzyme-free Cell Dissociation Buffer (Specialty Media, Lavallette, N.J.), and the cell monolayer was detached in an additional 10 ml of Enzyme-free Cell Dissociation Buffer by incubation at room temperature for 10 minutes. Dissociated cells were centrifuged (500×g for 10 minutes at 4° C.), resuspended in 5 ml homogenization buffer (10 mM Tris-HCl, pH 7.4, 0.01 mM Pefabloc, 10 μM phosphoramidon, 40 μg/ml bacitracin) and then homogenized using a glass homogenizer (10-15 strokes). The homogenate was centrifuged for 10 minutes (1,000×g at 4° C.). The resulting supernatant was then centrifuged at 38,700×g for 15 minutes at 4° C. Pelleted membranes were resuspended (passed through 25 gauge needle 5 times), snap-frozen on liquid nitrogen, and stored at −80° C. until use.
(§5) For the SPA-based assay, WGA-PVT beads (NEN Life Sciences Products) were resuspended in Dulbecco's PBS with calcium and magnesium (500 mg beads in 4 ml PBS). […] The suspension was mixed gently for 20 minutes, 12.3 ml of assay buffer and protease inhibitors were added (final concentration given): 2 μg/ml leupeptin, 10 μM phosphoramidon, 40 μg/ml bacitracin, 5 μg/ml aprotinin, 0.1 mM Pefabloc.
(§6) Coated beads were kept on ice until use. […] Binding reactions were allowed to proceed at room temperature for 3 hours. Quantitation was performed by scintillation counting (TopCount device).

[4] = molecular target: human MCH-2R (Homo sapiens, UniProt Q969V1); assay: Radiolabeled MCH-R binding assay (SPA based), MCH-2R; conditions: MCH-2R IC50 (nM), Table 3
human MCH-2R, sequence (Q969V1 whole entry): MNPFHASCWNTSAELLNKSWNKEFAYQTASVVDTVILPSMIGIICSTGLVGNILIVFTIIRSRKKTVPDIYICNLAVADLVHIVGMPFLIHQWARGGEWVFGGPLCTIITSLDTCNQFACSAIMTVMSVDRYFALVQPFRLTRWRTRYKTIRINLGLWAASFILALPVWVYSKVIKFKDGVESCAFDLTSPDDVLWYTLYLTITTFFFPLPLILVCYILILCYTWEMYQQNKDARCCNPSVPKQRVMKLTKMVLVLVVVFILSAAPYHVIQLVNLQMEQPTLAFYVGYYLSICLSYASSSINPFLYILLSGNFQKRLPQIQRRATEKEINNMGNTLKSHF
Procedure: as §4, §5, §6

human MCH-R2, sequence (Q969V1 whole entry): as above
T1 sequence (Q99705 whole entry): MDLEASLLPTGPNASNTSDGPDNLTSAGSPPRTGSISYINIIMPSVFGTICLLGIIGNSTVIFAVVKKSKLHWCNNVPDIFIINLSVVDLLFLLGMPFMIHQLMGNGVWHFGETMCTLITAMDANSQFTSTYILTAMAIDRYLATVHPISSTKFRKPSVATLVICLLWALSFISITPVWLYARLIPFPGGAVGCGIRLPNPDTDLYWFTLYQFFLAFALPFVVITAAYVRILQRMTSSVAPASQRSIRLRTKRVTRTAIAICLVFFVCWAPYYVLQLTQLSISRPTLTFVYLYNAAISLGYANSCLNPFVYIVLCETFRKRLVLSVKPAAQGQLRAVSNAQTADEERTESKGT

| Structure (SMILES) | MCH-1R Activation % ([1]; Table 3) [%] | EC50 ([2]; Table 3) [nM] | MCH-2R Activation % ([2]; Table 3) [%] | pIC50 [3] | IC50 [4] [nM] | pEC50 [1] | MCH-1R Activation % ([1]; Table 1) [%] | MCH-2R Activation % ([2]; Table 1) [%] | selective activity at MCH-2R over MCH-1R [2] | EC50 ([2]; Table 1, 293-AEQ17 cells) [nM] |
| --- | --- | --- | --- | --- | --- | --- | --- | --- | --- | --- |
| CSCC[C@@H]1NC(=O)[C@@H](NC(=O)[C@H](CCCNC(=N)N)NC(=O)[C@H](CC(C)C)NC(=O)[C@H](CCSC)NC(=O)[C@H](CC(=O)O)NC(=O)[C@H](Cc2ccccc2)NC(=O)[C@@H](N)CC(=O)O)CSSC[C@@H](C(=O)N[C@@H](Cc2ccc(O)cc2)C(=O)N[C@@H](CCC(N)=O)C(=O)N[C@H](C(=O)O)C(C)C)NC(=O)[C@@H]2CCCN2C(=O)[C@H](CCCNC(=N)N)NC(=O)[C@H](Cc2ccccc2)NC(=O)[C@H](C(C)C)NC(=O)[C@H](CCCNC(=N)N)NC(=O)CNC(=O)[C@H](CC(C)C)NC1=O [compound 57] (H-DFDMLRCMLGRVFRPCYQV-OH; disulfide 7-16; N-terminus and C-terminus assumed) | 97 | 1.5 | 92 | 9.22 | – | – | – | – | – | – |
| CSCC[C@@H]1NC(=O)[C@@H](NC(=O)[C@H](CCCNC(=N)N)NC(=O)[C@H](CC(C)C)NC(=O)[C@H](C)NC(=O)[C@H](CC(=O)O)NC(=O)[C@H](Cc2ccccc2)NC(=O)[C@@H](N)CC(=O)O)CSSC[C@@H](C(=O)N[C@@H](Cc2c[nH]c3ccccc23)C(=O)N[C@@H](CCC(N)=O)C(=O)N[C@H](C(=O)O)C(C)C)NC(=O)[C@@H]2CCCN2C(=O)[C@H](CCCNC(=N)N)NC(=O)[C@H](Cc2ccc(O)cc2)NC(=O)[C@H](C(C)C)NC(=O)[C@H](CCCNC(=N)N)NC(=O)CNC(=O)[C@H](CC(C)C)NC1=O [compound 44] (H-DFDALRCMLGRVYRPCWQV-OH; disulfide 7-16; N-terminus and C-terminus assumed) | 97 | – | 100 | 9.30 | – | – | – | – | – | – |
| CSCC[C@@H]1NC(=O)[C@@H](NC(=O)[C@H](CCCNC(=N)N)NC(=O)[C@H](CC(C)C)NC(=O)[C@H](CCSC)NC(=O)[C@H](CC(=O)O)NC(=O)[C@H](Cc2ccccc2)NC(=O)[C@@H](N)CC(=O)O)CSSC[C@@H](C(=O)N[C@@H](Cc2c[nH]c3ccccc23)C(=O)N[C@@H](CCC(N)=O)C(=O)N[C@H](C(=O)O)C(C)C)NC(=O)[C@@H]2CCCN2C(=O)[C@H](CCCNC(=N)N)NC(=O)[C@H](Cc2ccc(O)cc2)NC(=O)[C@H](C)NC(=O)[C@H](CCCNC(=N)N)NC(=O)CNC(=O)[C@H](CC(C)C)NC1=O [compound 50] (H-DFDMLRCMLGRAYRPCWQV-OH; disulfide 7-16; N-terminus and C-terminus assumed) | 95 | – | 98 | 9.05 | 25 | – | – | – | – | – |
| CSCC[C@@H]1NC(=O)[C@@H](NC(=O)[C@H](CCCNC(=N)N)NC(C)=O)CSSC[C@@H](C(N)=O)NC(=O)[C@@H]2CCCN2C(=O)[C@H](CCCNC(=N)N)NC(=O)[C@H](Cc2ccc(O)cc2)NC(=O)[C@H](C(C)C)NC(=O)[C@H](CCCNC(=N)N[N+](=O)[O-])NC(=O)[C@@H](C)NC(=O)[C@H](CC(C)C)NC1=O [compound 37] (Ac-RCML[dA][Arg(NO2)]VYRPC-NH2; disulfide 2-11) | – | – | – | < 6.00 | – | < 5.00 | 0.1 | 34 | – | – |
| CSCC[C@@H]1NC(=O)[C@@H](NC(=O)[C@H](CCCNC(=N)N)NC(C)=O)CSSC[C@@H](C(N)=O)NC(=O)[C@@H]2CCCN2C(=O)[C@H](CCCNC(=N)N)NC(=O)[C@H](Cc2ccc(O)cc2)NC(=O)[C@H](C(C)C)NC(=O)[C@H](CCCNC(=N)N)NC(=O)[C@@H](CO)NC(=O)[C@H](CC(C)C)NC1=O [compound 19] | – | – | – | 7.51 | – | – | 47 | 113 | selectively active | – |
| CC(=O)N[C@@H](CCCNC(=N)N)C(=O)N[C@H]1CSSC[C@@H](C(N)=O)NC(=O)[C@@H]2CCCN2C(=O)[C@H](CCCNC(=N)N)NC(=O)[C@H](Cc2ccc(O)cc2)NC(=O)[C@H](C(C)C)NC(=O)[C@H](CCCNC(=N)N)NC(=O)CNC(=O)[C@H](CC(C)C)NC(=O)[C@H](C)NC1=O [compound 4] (Ac-RCALGRVYRPC-NH2; disulfide 2-11) | – | – | – | 7.82 | – | – | 42 | 104 | selectively active | 12 |
| CSCC[C@@H]1NC(=O)[C@@H](NC(=O)[C@H](CCCNC(=N)N)NC(=O)[C@H](CC(C)C)NC(=O)[C@H](CCSC)NC(=O)[C@H](CC(=O)O)NC(=O)[C@H](Cc2ccccc2)NC(=O)[C@@H](N)CC(=O)O)CSSC[C@@H](C(=O)N[C@@H](Cc2c[nH]c3ccccc23)C(=O)N[C@@H](CCC(N)=O)C(=O)N[C@H](C(=O)O)C(C)C)NC(=O)[C@@H]2CCCN2C(=O)[C@H](C)NC(=O)[C@H](Cc2ccc(O)cc2)NC(=O)[C@H](C(C)C)NC(=O)[C@H](CCCNC(=N)N)NC(=O)CNC(=O)[C@H](CC(C)C)NC1=O [compound 52] (H-DFDMLRCMLGRVYAPCWQV-OH; disulfide 7-16; N-terminus and C-terminus assumed) | 97 | 187 | 81 | 8.85 | – | – | – | – | – | – |
| CSCC[C@@H]1NC(=O)[C@@H](NC(=O)[C@H](CCCNC(=N)N)NC(C)=O)CSSC[C@@H](C(N)=O)NC(=O)[C@@H]2CCCN2C(=O)[C@H](CCCNC(=N)N)NC(=O)[C@H](Cc2ccc(O)cc2)NC(=O)[C@H](C(C)C)NC(=O)[C@H](C)NC(=O)CNC(=O)[C@H](CC(C)C)NC1=O [compound 23] (Ac-RCMLGAVYRPC-NH2; disulfide 2-11) | – | – | – | < 6.00 | – | < 5.00 | – | 36 | selectively active | > 1000 |
| CSCC[C@H](NC(=O)[C@H](C)NC(=O)[C@H](Cc1ccccc1)NC(=O)[C@@H](N)CC(=O)O)C(=O)N[C@@H](CC(C)C)C(=O)N[C@@H](CCCNC(=N)N)C(=O)N[C@H]1CSSC[C@@H](C(=O)N[C@@H](Cc2c[nH]c3ccccc23)C(=O)N[C@@H](CCC(N)=O)C(=O)N[C@H](C(=O)O)C(C)C)NC(=O)[C@@H]2CCCN2C(=O)[C@H](CCCNC(=N)N)NC(=O)[C@H](Cc2ccc(O)cc2)NC(=O)[C@H](C(C)C)NC(=O)[C@H](CCCNC(=N)N)NC(=O)CNC(=O)[C@H](CC(C)C)NC(=O)[C@H](CCSC)NC1=O [compound 43] (H-DFAMLRCMLGRVYRPCWQV-OH; disulfide 7-16; N-terminus and C-terminus assumed) | 97 | – | 95 | 9.30 | – | – | – | – | – | – |
| CSCC[C@@H]1NC(=O)[C@@H](NC(=O)[C@H](CCCNC(=N)N)NC(=O)[C@H](CC(C)C)NC(=O)[C@H](CCSC)NC(=O)[C@H](CC(=O)O)NC(=O)[C@H](Cc2ccccc2)NC(=O)[C@@H](N)CC(=O)O)CSSC[C@@H](C(=O)N[C@@H](Cc2c[nH]c3ccccc23)C(=O)N[C@@H](CCC(N)=O)C(=O)N[C@H](C(=O)O)C(C)C)NC(=O)[C@@H]2CCCN2C(=O)[C@H](CCCNC(=N)N)NC(=O)[C@H](Cc2ccc(O)cc2)NC(=O)[C@H](C(C)C)NC(=O)[C@H](CCCNC(=N)N)NC(=O)CNC(=O)[C@H](C)NC1=O [compound 48] (H-DFDMLRCMAGRVYRPCWQV-OH; disulfide 7-16; N-terminus and C-terminus assumed) | 96 | – | 92 | 9.05 | 9.5 | – | – | – | – | – |
